Read-outs that look alike come from different tables or passages of the source.
How the values were obtained:
[1] = test system: MIA PaCa-2 cells; test: Growth inhibition assay in pancreatic cancer cell lines (MTS); type: cell-based, human
Method: (§1) Growth inhibition assays for determination of GI50 values in pancreatic cancer cell lines were typically carried out essentially as follows. Compounds were individually tested at various concentrations against cancer cells grown in cell culture. The cell viability was determined by use of a standard assay that employs 3-(4,5-dimethylthiazol-2-yl)-5-(3-carboxymethoxyphenyl)-2-(4-sulfophenyl)-2H-tetrazolium, inner salt (MTS), and an electron coupling reagent, phenazine methosulfate (PMS). Absorbance at 490 nm (A490) was measured, and survival curves were obtained by comparison of A490 from treated cells with A490 from untreated cells (control). GI50 values were calculated from nonlinear curve fitting.

[2] = test system: BxPC-3 (pancreatic) cancer cells; test: as above; type: cell-based; settings: read-out: 50% growth inhibition (GI50)
Method: as §1

[3] = test system: CCRF-CEM; test: NCI 60-cell-line cancer screen, growth inhibition (SRB); type: cell-based; settings: Leukemia CCRF-CEM, duplicate evaluations
Method: (§2) Cell growth inhibition studies whose results are reported above were carried out at the National Cancer Institute essentially as follows. Cells grown in RPMI 1640 medium containing 5% fetal bovine serum and 2 mM L-glutamine were inoculated into 96-well microtiter plates, which were incubated for 24 hours prior to addition of CMAC-1 at five concentrations. After 48 hours, cold trichloroacetic acid was added, and the plates were washed and air dried. The cells were stained with sulforhodamine B (SRB), and the absorbance was read on an automated plate reader at a wavelength of 515 nm. The percentage growth was calculated at each of the drug concentrations. The growth inhibition of 50% (GI50) was then calculated. The GI50 is the drug concentration resulting in a 50% reduction in the net protein increase (as measured by SRB staining) in control cells during the drug incubation.

[4] = test system: EKVX; test: as above; type: cell-based; settings: NSCLC EKVX, duplicate evaluations
Method: as §2

[5] = test system: HCT-15; test: as above; type: cell-based; settings: Homo sapiens
Method: as §2

[6] = test system: HL60-(TB); test: as above; type: cell-based; settings: Homo sapiens
Method: as §2

[7] = test system: HOP-62; test: as above; type: cell-based
Method: as §2

[8] = test system: HS 578T; test: as above; type: cell-based; settings: Breast HS 578T, duplicate evaluations
Method: as §2

[9] = test system: HT29; test: as above; type: cell-based
Method: as §2

[10] = test system: K562; test: as above; type: cell-based; settings: Homo sapiens
Method: as §2

[11] = test system: M14; test: as above; type: cell-based; settings: Homo sapiens; Melanoma M14; 48 hours; duplicate evaluations
Method: as §2

[12] = test system: MALMI-3M; test: as above; type: cell-based; settings: Melanoma MALMI-3M, duplicate evaluations
Method: as §2

[13] = test system: MCF7; test: as above; type: cell-based
Method: as §2

[14] = test system: MDA-MB-435; test: as above; type: cell-based; settings: Homo sapiens
Method: as §2

[15] = test system: NCI-H226; test: as above; type: cell-based
Method: as §2

[16] = test system: NCI-H322M; test: as above; type: cell-based; settings: NSCLC NCI-H322M, duplicate evaluations
Method: as §2

[17] = test system: NCI-H460; test: as above; type: cell-based
Method: as §2

[18] = test system: NCI-H522; test: as above; type: cell-based
Method: as §2

[19] = test system: NCI/ADR-RES; test: as above; type: cell-based; settings: Breast NCI/ADR-RES, duplicate evaluations
Method: as §2

[20] = test system: OVCAR-3; test: as above; type: cell-based
Method: as §2

[21] = test system: OVCAR-8; test: as above; type: cell-based
Method: as §2

[22] = test system: RPMI-8226; test: as above; type: cell-based; settings: Homo sapiens
Method: as §2

[23] = test system: SF-268; test: as above; type: cell-based
Method: as §2

[24] = test system: SF-295; test: as above; type: cell-based
Method: as §2

[25] = test system: SF-539; test: as above; type: cell-based
Method: as §2

[26] = test system: SNB-75; test: as above; type: cell-based
Method: as §2

[27] = test system: SR; test: as above; type: cell-based; settings: Homo sapiens
Method: as §2

[28] = test system: SW-620; test: as above; type: cell-based; settings: Homo sapiens
Method: as §2

[29] = test system: U251; test: as above; type: cell-based
Method: as §2

[30] = test system: UACC-257; test: as above; type: cell-based
Method: as §2

[31] = test system: Melanoma; test: NCI 60-cell-line panel, summary by cancer type; type: cell-based
Method: as §2

[32] = test system: individual cell lines of central nervous system (CNS) cancer; test: NCI 60-cell-line panel, summary by cancer type; type: cell-based
Method: as §2

[33] = test system: individual cell lines of non-small-cell lung cancer (NSCLC); test: NCI 60-cell-line panel, summary by cancer type; type: cell-based
Method: as §2

[34] = test system: individual cell lines of ovarian cancer; test: NCI 60-cell-line panel, summary by cancer type; type: cell-based
Method: as §2

[35] = test system: individual cell lines of prostate cancer; test: NCI 60-cell-line panel, summary by cancer type; type: cell-based
Method: as §2

[36] = test system: renal cancer; test: NCI 60-cell-line panel, summary by cancer type; type: cell-based
Method: as §2

C=C(Cl)C(=O)Oc1cc(C=CC(=O)c2cc(OC)c(OC)c(OC)c2)ccc1OC [Entry 6, 3-[3-(2-Chloroacryloyloxy)-4-methoxyphenyl]-1-(3,4,5-trimethoxyphenyl)propenone]
GI50 ([1]; MIA PaCa-2 pancreatic cancer cells in culture, read-out: concentration required for 50% growth inhibition (GI50)): 56 nM | GI50 [2]: 4500 nM

C/C=C/C(=O)SCC(=O)Oc1cc(/C=C/C(=O)c2cc(OC)c(OC)c(OC)c2)ccc1OC [CMAC-1, 3-[3-(crotonylsulfanylmethylcarbonyloxy)-4-methoxyphenyl]-1-(3,4,5-trimethoxyphenyl)propenone]
GI50 ([3]; Homo sapiens, CCRF-CEM, 48 h): 71.6 nM | GI50 ([3]; 48 hours): 86 nM | GI50 ([4]; Homo sapiens, EKVX, 48 h): 2090 nM | GI50 ([4]; 48 hours): 1700 nM | GI50 ([5]; Colon HCT-15, 48 hours, duplicate evaluations): < 10 nM | GI50 ([5]; colon HCT-15, Table 2): < 10 nM | GI50 ([6]; HL-60, Leukemia HL60-(TB), 48 hours, duplicate evaluations): < 10 nM | GI50 ([6]; leukemia HL-60, Table 2): < 10 nM | GI50 ([7]; Homo sapiens, HOP-62, 48 h, NSCLC HOP-62, duplicate evaluations): 1230 nM | GI50 ([7]; NSCLC HOP-62, 48 hours, duplicate evaluations): 1000 nM | GI50 ([8]; 48 hours): 20.6 nM | GI50 ([8]; Homo sapiens, Hs-578T, 48 h): 40.4 nM | GI50 ([9]; Colon HT29, 48 hours, duplicate evaluations): 1680 nM | GI50 ([9]; Homo sapiens, HT-29, 48 h, Colon HT29, duplicate evaluations): 2870 nM | GI50 ([10]; K562, leukemia K-562, Table 2): < 10 nM | GI50 ([10]; Leukemia K562, 48 hours, duplicate evaluations): < 10 nM | GI50 [11]: 62.3 nM | GI50 ([12]; 48 h): 74.2 nM | GI50 ([12]; 48 hours): 44.7 nM | GI50 ([13]; Breast MCF7, 48 hours, duplicate evaluations): 30 nM | GI50 ([13]; Homo sapiens, MCF7, 48 h, Breast MCF7, duplicate evaluations): 28.5 nM | GI50 ([14]; Breast MDA-MB-435, 48 hours, duplicate evaluations): < 10 nM | GI50 ([14]; breast cancer cells MDA-MB-435, Table 2): < 10 nM | GI50 ([15]; Homo sapiens, NCI-H226, 48 h, NSCLC NCI-H226, duplicate evaluations): 17200 nM | GI50 ([15]; NSCLC NCI-H226, 48 hours, duplicate evaluations): 11200 nM | GI50 ([16]; Homo sapiens, NCI-H322M, 48 h): 85.1 nM | GI50 ([16]; 48 hours): 70.3 nM | GI50 ([17]; Homo sapiens, NCI-H460, 48 h, NSCLC NCI-H460, duplicate evaluations): 52.4 nM | GI50 ([17]; NSCLC NCI-H460, 48 hours, duplicate evaluations): 33.5 nM | GI50 ([18]; Homo sapiens, NCI-H522, 48 h, NSCLC NCI-H522, duplicate evaluations): 22.4 nM | GI50 ([18]; NSCLC NCI-H522, 48 hours, duplicate evaluations): 15.8 nM | GI50 ([19]; 48 hours): 32.2 nM | GI50 ([19]; Homo sapiens, NCI/ADR-RES, 48 h): 26.2 nM | GI50 ([20]; Homo sapiens, OVCAR-3, 48 h, Ovarian OVCAR-3, duplicate evaluations): 11.6 nM | GI50 ([20]; Ovarian OVCAR-3, 48 hours, duplicate evaluations): < 10 nM | GI50 ([21]; Homo sapiens, OVCAR-8, 48 h, Ovarian OVCAR-8, duplicate evaluations): 43.9 nM | GI50 ([21]; Ovarian OVCAR-8, 48 hours, duplicate evaluations): 47.1 nM | GI50 ([22]; Leukemia RPMI-8226, 48 hours, duplicate evaluations): < 10 nM | GI50 ([22]; leukemia RPMI-8226, Table 2): < 10 nM | GI50 ([23]; CNS SF-268, 48 hours, duplicate evaluations): 63.8 nM | GI50 ([23]; Homo sapiens, SF-268, 48 h, CNS SF-268, duplicate evaluations): 81.1 nM | GI50 ([24]; CNS SF-295, 48 hours, duplicate evaluations): 231 nM | GI50 ([24]; Homo sapiens, SF-295, 48 h, CNS SF-295, duplicate evaluations): 215 nM | GI50 ([25]; CNS SF-539, 48 hours, duplicate evaluations): < 10 nM | GI50 ([25]; Homo sapiens, 48 h, CNS SF-539, duplicate evaluations): 16.4 nM | GI50 ([26]; CNS SNB-75, 48 hours, duplicate evaluations): < 10 nM | GI50 ([26]; Homo sapiens, SNB-75, 48 h, CNS SNB-75, duplicate evaluations): 16.5 nM | GI50 ([27]; Leukemia SR, 48 hours, duplicate evaluations): < 10 nM | GI50 ([27]; leukemia SR, Table 2): < 10 nM | GI50 ([28]; Colon SW-620, 48 hours, duplicate evaluations): < 10 nM | GI50 ([28]; colon SW-620, Table 2): < 10 nM | GI50 ([29]; CNS U251, 48 hours, duplicate evaluations): 52.1 nM | GI50 ([29]; Homo sapiens, U-251, 48 h, CNS U251, duplicate evaluations): 42.7 nM | GI50 ([30]; Homo sapiens, UACC-257, 48 h, Melanoma UACC-257, duplicate evaluations): 3580 nM | GI50 ([30]; Melanoma UACC-257, 48 hours, duplicate evaluations): 4140 nM | GI50 ([1]; Homo sapiens, MIA PaCa-2 pancreatic cancer cells in culture, read-out: concentration required for 50% growth inhibition (GI50)): 16 nM | GI50 [31]: < 75 nM | GI50 [32]: < 50 nM | GI50 [33]: < 50 nM | GI50 [34]: < 50 nM | GI50 [35]: < 50 nM | GI50 [36]: < 150 nM | melting point: 123 to 125.5 °C

C/C=C/C(=O)SCC(=O)OCc1ccc(/C=C/C(=O)c2cc(OC)c(OC)c(OC)c2)o1 [CMAF-1, 3-[5-(crotonylsulfanylmethylcarbonyloxymethyl)-2-furyl]-1-(3,4,5-trimethoxyphenyl)propenone]
GI50 ([1]; human pancreatic cancer cell (MIA PaCa-2) growth in culture, read-out: GI50): 17000 nM

— patent publication US8552066B2, “Modified chalcone compounds as antimitotic agents” (Arizona Biomedical Research Commission, priority 2006, dated 2013)
